Test results: US20240398805A1, “QUINAZOLINE DERIVED COMPOUNDS AS EGFR INHIBITORS AND THEIR USES THEREOF” (ACCUTAR BIOTECHNOLOGY INC., priority 2021, published 2024)

How the values were obtained:
Format in all cases: cell-based
[1] = system: HCC827-SVD cells (human EGFR exon 20 insertion mutant D770_N771 insSVD); assay: Cell growth inhibition (CellTiter-Glo, 3 days) in HCC827-SVD; settings: 72 h, 3 days after administration
Method in brief: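 HCC827 cells carrying lentiviral codon-optimized EGFR D770_N771 insSVD, with endogenous EGFR knocked out by CRISPR (single clone), seeded at 5000 cells/well in RPMI with 10% FBS. Viability read by CellTiter-Glo luminescence.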

HCC827 cells = assay: Cell growth inhibition (CellTiter-Glo, 3 days) in HCC827; settings: Homo sapiens, 72 h, 3 days after administration
Method in brief: (§1)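 Growth inhibition was scored by CellTiter-Glo luminescence after 3-day compound exposure at various concentrations. Cells were plated at 5000/well the day before treatment: A431 in DMEM and HCC827 in RPMI, each with 10% FBS.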

[2] = system: HCC827-ASV cells (human EGFR exon 20 insertion mutant A769_D770insASV); assay: Cell growth inhibition (CellTiter-Glo, 3 days) in HCC827-ASV; settings: 72 h, 3 days after administration
Method in brief: (§2)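 Growth inhibition used a CellTiter-Glo luminescence read-out after 3 days of compound exposure at various concentrations. Cells were plated the day before at 5000/well in RPMI plus 10% FBS. The lines are HCC827 transduced by lentivirus with codon-optimized EGFR ASV or ERBB2 YVMA exon 20 insertions.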

A431 cells = assay: Cell growth inhibition (CellTiter-Glo, 3 days) in A431; settings: Homo sapiens, A-431, 72 h, 3 days after administration
Method in brief: as §1

[3] = system: HCC827-YVMA cells (human ERBB2 exon20 insertion mutant A775_G776ins YVMA); assay: Cell growth inhibition (CellTiter-Glo, 3 days) in HCC827-YVMA; settings: 72 h, 3 days after administration
Method in brief: as §2

Row | Compound | GI50 [1] [µM] | GI50 (HCC827 cells) [µM] | GI50 [2] [µM] | GI50 (A431 cells) [µM] | GI50 [3] [µM]
1 | C=CC(=O)N1CCC(Nc2cc3c(Nc4ccc(Oc5nc(-c6cnc(C)c(F)c6)cs5)cc4F)ncnc3cc2OC)CC1 [Example 94, 1-(4-((4-((2-fluoro-4-((4-(5-fluoro-6-methylpyridin-3-yl)thiazol-2-yl)oxy)phenyl)amino)-7-methoxyquinazolin-6-yl)amino)piperidin-1-yl)prop-2-en-1-one] | 0.1 to 0.3 | 0.03 to 0.06 | 0.03 to 0.06 | ≥ 1 | 0.03 to 0.06
2 | C=CC(=O)N1CCC(Nc2cc3c(Nc4ccc(OCc5ccccn5)c(Cl)c4)ncnc3cc2OCCN(C)C)CC1 [Example 96, 1-(4-((4-((3-chloro-4-(pyridin-2-ylmethoxy)phenyl)amino)-7-(2-(dimethylamino)ethoxy)quinazolin-6-yl)amino)piperidin-1-yl)prop-2-en-1-one] | 0.1 to 0.3 | 0.06 to 0.1 | 0.1 to 0.3 | 0.3 to 0.6 | 0.1 to 0.3
3 | C=CC(=O)N1CCC(Nc2cc3c(Nc4ccc(Oc5ccnc(N6CCCC6)c5)cc4F)ncnc3cc2OC)CC1 [Example 102, 1-(4-((4-((2-fluoro-4-((2-(pyrrolidin-1-yl)pyridin-4-yl)oxy)phenyl)amino)-7-methoxyquinazolin-6-yl)amino)piperidin-1-yl)prop-2-en-1-one] | 0.06 to 0.1 | 0.1 to 0.3 | 0.1 to 0.3 | 0.1 to 0.3 | 0.1 to 0.3
4 | C=CC(=O)N1CCC(Nc2cc3c(Nc4ccc(OCc5ccc(N6CCOCC6)cn5)cc4F)ncnc3cc2OC)CC1 [Example 107, 1-(4-((4-((2-fluoro-4-((5-morpholinopyridin-2-yl)methoxy)phenyl)amino)-7-methoxyquinazolin-6-yl)amino)piperidin-1-yl)prop-2-en-1-one] | 0.6 to 1 | 0.1 to 0.3 | 0.3 to 0.6 | 0.3 to 0.6 | 0.3 to 0.6
5 | C=CC(=O)N1CCC(Nc2cc3c(Nc4ccc(Oc5cc(N6C[C@@H](C)O[C@@H](C)C6)ncc5Cl)cc4F)ncnc3cc2OC)CC1 [Example 108, 1-(4-((4-((4-((5-chloro-2-((2R,6S)-2,6-dimethylmorpholino)pyridin-4-yl)oxy)-2-fluorophenyl)amino)-7-methoxyquinazolin-6-yl)amino)piperidin-1-yl)prop-2-en-1-one] | 0.3 to 0.6 | 0.3 to 0.6 | 0.1 to 0.3 | ≥ 1 | 0.1 to 0.3
6 | C=CC(=O)N1CCC(Nc2cc3c(Nc4ccc(Oc5ccnn5-c5cnc(OC)c(F)c5)cc4F)ncnc3cc2OC)CC1 [Example 109, 1-(4-((4-((2-fluoro-4-((1-(5-fluoro-6-methoxypyridin-3-yl)-1H-pyrazol-5-yl)oxy)phenyl)amino)-7-methoxyquinazolin-6-yl)amino)piperidin-1-yl)prop-2-en-1-one] | ≥ 1 | < 0.03 | ≥ 1 | ≥ 1 | ≥ 1
7 | C=CC(=O)N1CCC(Nc2cc3c(Nc4ccc(Oc5ncc(N6C[C@@H](C)O[C@@H](C)C6)cn5)cc4F)ncnc3cc2OC)CC1 [Example 110, 1-(4-((4-((4-((5-((2R,6S)-2,6-dimethylmorpholino)pyrimidin-2-yl)oxy)-2-fluorophenyl)amino)-7-methoxyquinazolin-6-yl)amino)piperidin-1-yl)prop-2-en-1-one] | ≥ 1 | < 0.03 | ≥ 1 | 0.1 to 0.3 | ≥ 1
8 | C=CC(=O)N1CCC(Nc2cc3c(Nc4ccc(Oc5ccc(N6C[C@@H](C)O[C@@H](C)C6)cn5)cc4F)ncnc3cc2OC)CC1 [Example 111, 1-(4-((4-((4-((5-((2R,6S)-2,6-dimethylmorpholino)pyridin-2-yl)oxy)-2-fluorophenyl)amino)-7-methoxyquinazolin-6-yl)amino)piperidin-1-yl)prop-2-en-1-one] | 0.3 to 0.6 | 0.03 to 0.06 | 0.3 to 0.6 | 0.6 to 1 | 0.3 to 0.6
9 | C=CC(=O)N1CCC(Nc2cc3c(Nc4ccc(Oc5ccnc(N6CCS(=O)(=O)CC6)c5)cc4F)ncnc3cc2OC)CC1 [Example 112, 1-(4-((4-((4-((2-(1,1-dioxidothiomorpholino)pyridin-4-yl)oxy)-2-fluorophenyl)amino)-7-methoxyquinazolin-6-yl)amino)piperidin-1-yl)prop-2-en-1-one] | 0.1 to 0.3 | ≥ 1 | 0.3 to 0.6 | ≥ 1 | 0.6 to 1

Results, then the compound that gave them:

Row | GI50 [1] [µM] | GI50 (HCC827 cells) [µM] | GI50 [2] [µM] | GI50 (A431 cells) [µM] | GI50 [3] [µM] | Compound
10 | 0.03 to 0.06 | 0.1 to 0.3 | 0.06 to 0.1 | 0.1 to 0.3 | 0.1 to 0.3 | C=CC(=O)N1CCC(Nc2cc3c(Nc4ccc(Oc5ccn(-c6cnc7ccccc7c6)n5)cc4F)ncnc3cc2OC)CC1 [Example 91, 1-(4-((4-((2-fluoro-4-((1-(quinolin-3-yl)-1H-pyrazol-3-yl)oxy)phenyl)amino)-7-methoxyquinazolin-6-yl)amino)piperidin-1-yl)prop-2-en-1-one]
11 | < 0.03 | 0.06 to 0.1 | < 0.03 | 0.1 to 0.3 | < 0.03 | C=CC(=O)N1CCC(Nc2cc3c(Nc4ccc(Oc5ccn(-c6cnc(C)nc6)n5)cc4F)ncnc3cc2OC)CC1 [Example 92, 1-(4-((4-((2-fluoro-4-((1-(2-methylpyrimidin-5-yl)-1H-pyrazol-3-yl)oxy)phenyl)amino)-7-methoxyquinazolin-6-yl)amino)piperidin-1-yl)prop-2-en-1-one]
12 | 0.06 to 0.1 | 0.06 to 0.1 | 0.03 to 0.06 | ≥ 1 | 0.03 to 0.06 | C=CC(=O)N1CCC(Nc2cc3c(Nc4ccc(Oc5ccn(-c6ccc(C)c(F)n6)n5)cc4F)ncnc3cc2OC)CC1 [Example 93, 1-(4-((4-((2-fluoro-4-((1-(6-fluoro-5-methylpyridin-2-yl)-1H-pyrazol-3-yl)oxy)phenyl)amino)-7-methoxyquinazolin-6-yl)amino)piperidin-1-yl)prop-2-en-1-one]
13 | < 0.03 | < 0.03 | < 0.03 | 0.1 to 0.3 | < 0.03 | C=CC(=O)N1CCC(Nc2cc3c(Nc4ccc(OCc5ccccn5)c(Cl)c4)ncnc3cc2OCCN2CCOCC2)CC1 [Example 95, 1-(4-((4-((3-chloro-4-(pyridin-2-ylmethoxy)phenyl)amino)-7-(2-morpholinoethoxy)quinazolin-6-yl)amino)piperidin-1-yl)prop-2-en-1-one]
14 | < 0.03 | 0.06 to 0.1 | < 0.03 | 0.1 to 0.3 | < 0.03 | C=CC(=O)N1CCC(Nc2cc3c(Nc4ccc(Oc5ccnc(-c6nc(C)cs6)c5)cc4F)ncnc3cc2OC)CC1 [Example 98, 1-(4-((4-((2-fluoro-4-((2-(4-methylthiazol-2-yl)pyridin-4-yl)oxy)phenyl)amino)-7-methoxyquinazolin-6-yl)amino)piperidin-1-yl)prop-2-en-1-one]
15 | 0.06 to 0.1 | 0.06 to 0.1 | 0.03 to 0.06 | 0.6 to 1 | 0.03 to 0.06 | C=CC(=O)N1CCC(Nc2cc3c(Nc4ccc(Oc5ccnc(-c6ncc(C)s6)c5)cc4F)ncnc3cc2OC)CC1 [Example 99, 1-(4-((4-((2-fluoro-4-((2-(5-methylthiazol-2-yl)pyridin-4-yl)oxy)phenyl)amino)-7-methoxyquinazolin-6-yl)amino)piperidin-1-yl)prop-2-en-1-one]
16 | < 0.03 | 0.03 to 0.06 | < 0.03 | 0.1 to 0.3 | < 0.03 | C=CC(=O)N1CCC(Nc2cc3c(Nc4ccc(Oc5ccnc(N(C)C)c5)cc4F)ncnc3cc2OC)CC1 [Example 103, 1-(4-((4-((4-((2-(dimethylamino)pyridin-4-yl)oxy)-2-fluorophenyl)amino)-7-methoxyquinazolin-6-yl)amino)piperidin-1-yl)prop-2-en-1-one]
17 | < 0.03 | 0.1 to 0.3 | < 0.03 | ≥ 1 | < 0.03 | C=CC(=O)N1CCC(Nc2cc3c(Nc4ccc(Oc5ccnc(N6CCC(OC)CC6)c5)cc4F)ncnc3cc2OC)CC1 [Example 104, 1-(4-((4-((2-fluoro-4-((2-(4-methoxypiperidin-1-yl)pyridin-4-yl)oxy)phenyl)amino)-7-methoxyquinazolin-6-yl)amino)piperidin-1-yl)prop-2-en-1-one]
18 | < 0.03 | 0.3 to 0.6 | < 0.03 | ≥ 1 | < 0.03 | C=CC(=O)N1CCC(Nc2cc3c(Nc4ccc(Oc5ccnc(N6C[C@H](C)O[C@@H](C)C6)c5)cc4F)ncnc3cc2OC)CC1 [Example 105, 1-(4-((4-((4-((2-((2S,6S)-2,6-dimethylmorpholino)pyridin-4-yl)oxy)-2-fluorophenyl)amino)-7-methoxyquinazolin-6-yl)amino)piperidin-1-yl)prop-2-en-1-one]
19 | < 0.03 | 0.1 to 0.3 | < 0.03 | ≥ 1 | < 0.03 | C=CC(=O)N1CCC(Nc2cc3c(Nc4ccc(Oc5ccnc(N6CCCOCC6)c5)cc4F)ncnc3cc2OC)CC1 [Example 106, 1-(4-((4-((4-((2-(1,4-oxazepan-4-yl)pyridin-4-yl)oxy)-2-fluorophenyl)amino)-7-methoxyquinazolin-6-yl)amino)piperidin-1-yl)prop-2-en-1-one]
